Here are results for ten compounds from patent US20250145606A1 (Arcus Biosciences, Inc., priority 2023, published 2025).

SMILES strings stand for the structures. Read-outs that look alike come from different tables or passages of the source.

One series addresses CSF1R (Homo sapiens (Human), UniProt P07333). Put plainly: Inhibition of CSF1R kinase activity (HTRF KinEASE-TK). To be noted: biochemical, HTRF KinEASE-TK. The procedure, abridged:
(§1)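 Recombinant kinases (2 nM CSF1R and c-Kit, 10 nM PDGFRα/β, 2× working) preincubated 1 h with compound in 50 mM HEPES pH 7.4, 5 mM MgCl2 (c-Kit) or 10 mM (others), 2 mM MnCl2; 2× ATP: c-Kit 16 μM, PDGFRα 1 μM, PDGFRβ 40 μM, CSF1R 20 μM. 120 min reaction at rt; TR-FRET 665/620 nm; IC50 by 4-parameter fit.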

Another series concerns the target PDGFRα (Homo sapiens (Human), UniProt P16234). Put plainly: Inhibition of PDGFRα kinase activity (HTRF KinEASE-TK). Particulars: biochemical, HTRF KinEASE-TK. The essentials: as §1
Background: TR-FRET usually uses a lanthanide donor and a delayed reading to cut background.

Series [1] concerns Sprague Dawley rat hepatocytes. Put plainly: Bioactivation assessment in rat hepatocytes. The class given is in vitro ADME. To be noted: 5 μM, 4 hours. The protocol: (§2) Bioactivation Assessment Procedure
(§3) Pooled male Sprague Dawley rat (BioIVT), male beagle dog (BioIVT), male cynomolgus monkey (BioIVT), and a 50-donor pool of cryopreserved human hepatocytes (BioIVT) was thawed in pre-warmed 37° C. InVitroGro™ HT media (BioIVT), centrifuged, and resuspended in the InVitroGro™ HI media (BioIVT). The number of viable cells was determined by the Trypan blue exclusion method. The cells were diluted to a concentration of two million viable cells per milliliter (viability >80%) and seeded into round-bottom 96-well plates. The test articles were dissolved in DMSO and further diluted in 50% CH3CN and InVitroGro™ HI media with final concentrations of 0.05% DMSO and 0.5% CH3CN in the incubation mixture. Incubation was performed at a final concentration of one million cells per milliliter and 5 μM test compounds with continuous shaking at 1100 rpm in a 37° C., 5/95% CO2/air incubator with 100% relative humidity. After 4 hours, the samples were quenched by addition of 3 volumes of CH3CN, vortexed for 15 minutes, and centrifuged at 4200 rpm for 15 minutes at 10° C. (Sorvall Legend XTR centrifuge, Thermo Scientific, Langenselbold, Germany). 80 μL of the resulting supernatant was transferred into a new plate and mixed with 160 μL water followed by liquid chromatography-high resolution mass spectrometry (LC-HRMS) analysis.
(§4) Structural assignments of metabolites were determined through mass spectral analysis. The level of bioactivation was estimated based on the relative peak area of bioactivation products to all identified metabolites. The following equation was used: […]
(§5) Bioactivation products included glutathione conjugates, imine methides, quinones, diols, and other relevant metabolites.

In another series the target is c-Kit (Homo sapiens (Human), UniProt P10721). Kind of series: Inhibition of c-Kit kinase activity (HTRF KinEASE-TK). To be noted: biochemical, HTRF KinEASE-TK. The class given is biochemical. The procedure, abridged:
as §1

For a further series, the target named is PDGFRβ (Homo sapiens (Human), UniProt P09619). Put plainly: Inhibition of PDGFRβ kinase activity (HTRF KinEASE-TK). Particulars: biochemical, HTRF KinEASE-TK. The procedure, abridged:
as §1

A further series has as its system beagle dog hepatocytes. Put plainly: Bioactivation assessment in dog hepatocytes. Particulars: 5 μM, 4 hours. The class given is in vitro ADME. On the procedure: as §2, §3, §4, §5
For a further series, the system named is human hepatocytes. Put plainly: Bioactivation assessment in human hepatocytes. To be noted: 5 μM, 4 hours. Type of series: in vitro ADME. The protocol: as §2, §3, §4, §5
The next series addresses FLT3 (Homo sapiens (Human), UniProt P36888). Kind of series: Inhibition of FLT3 kinase activity (HTRF KinEASE-TK). Type of series: biochemical. Particulars: biochemical, HTRF KinEASE-TK. The procedure, abridged: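 FLT3 tyrosine kinase activity was measured with the HTRF KinEASE-TK kit by following phosphorylation of a biotinylated TK peptide. After the 45 min reaction, 10 μL of detection mix was added: 0.2 μM (2×) Streptavidin-XL665 and 2 μM (2×) TK-Antibody-Cryptate in detection buffer. After 60 min, TR-FRET was read on an Envision as the 665 nm/620 nm emission ratio with 320 nm excitation.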

Series [2] deals with Phospho-KIT (Y703) in M07e cells. Kind of series: Phospho-KIT (Y703) cellular assay in M07e cells. Type of series: cell-based. To be noted: M-07e, M07e cells. The essentials: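 Serum-starved M07e cells preincubated 50 min at 37° C with 11-point half-log compound titration, then stimulated 10 min with SCF at 90.9 ng/mL final. Fixed, permeabilized cells stained for phospho-KIT Y703 and read by flow cytometry (live-gated geometric mean); IC50 by 4-parameter fit normalized to DMSO and positive control.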

Series [3] deals with cynomolgus monkey hepatocytes. Kind of series: Bioactivation assessment in monkey hepatocytes. The class given is in vitro ADME. Particulars: 5 μM, 4 hours. On the procedure: as §2, §3, §4, §5
The mark [4] stands for this setting: Phospho-KIT (Y703), read-out: M07e Cell IC50.
Setting [5] is: read-out: Phospho-KIT (Y703) cellular IC50.

FLT3, sequence (P36888 27-993): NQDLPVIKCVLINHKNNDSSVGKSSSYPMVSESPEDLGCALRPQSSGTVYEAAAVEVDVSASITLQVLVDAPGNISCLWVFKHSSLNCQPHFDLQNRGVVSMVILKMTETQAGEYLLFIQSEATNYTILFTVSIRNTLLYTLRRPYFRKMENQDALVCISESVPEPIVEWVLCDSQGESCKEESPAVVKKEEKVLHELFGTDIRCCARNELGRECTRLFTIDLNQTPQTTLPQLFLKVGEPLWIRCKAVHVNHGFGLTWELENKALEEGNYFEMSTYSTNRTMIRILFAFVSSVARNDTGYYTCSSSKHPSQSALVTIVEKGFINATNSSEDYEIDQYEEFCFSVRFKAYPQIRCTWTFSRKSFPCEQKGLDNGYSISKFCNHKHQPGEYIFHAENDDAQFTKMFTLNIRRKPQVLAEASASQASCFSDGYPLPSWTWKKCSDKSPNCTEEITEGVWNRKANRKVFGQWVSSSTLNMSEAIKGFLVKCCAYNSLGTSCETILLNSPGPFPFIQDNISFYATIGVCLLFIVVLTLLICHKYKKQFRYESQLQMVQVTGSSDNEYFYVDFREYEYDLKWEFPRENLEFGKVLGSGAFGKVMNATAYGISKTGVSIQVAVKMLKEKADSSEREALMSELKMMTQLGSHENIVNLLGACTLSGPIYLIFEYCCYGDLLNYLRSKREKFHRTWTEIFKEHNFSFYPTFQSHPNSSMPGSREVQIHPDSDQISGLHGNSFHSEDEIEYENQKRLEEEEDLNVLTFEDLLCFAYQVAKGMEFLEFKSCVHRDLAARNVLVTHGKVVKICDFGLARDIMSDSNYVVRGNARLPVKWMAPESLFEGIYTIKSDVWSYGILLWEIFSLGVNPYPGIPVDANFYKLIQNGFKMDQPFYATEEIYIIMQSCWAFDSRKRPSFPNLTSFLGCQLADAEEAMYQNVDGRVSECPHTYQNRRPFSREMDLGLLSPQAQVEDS
PDGFRα, sequence (P16234 24-1089): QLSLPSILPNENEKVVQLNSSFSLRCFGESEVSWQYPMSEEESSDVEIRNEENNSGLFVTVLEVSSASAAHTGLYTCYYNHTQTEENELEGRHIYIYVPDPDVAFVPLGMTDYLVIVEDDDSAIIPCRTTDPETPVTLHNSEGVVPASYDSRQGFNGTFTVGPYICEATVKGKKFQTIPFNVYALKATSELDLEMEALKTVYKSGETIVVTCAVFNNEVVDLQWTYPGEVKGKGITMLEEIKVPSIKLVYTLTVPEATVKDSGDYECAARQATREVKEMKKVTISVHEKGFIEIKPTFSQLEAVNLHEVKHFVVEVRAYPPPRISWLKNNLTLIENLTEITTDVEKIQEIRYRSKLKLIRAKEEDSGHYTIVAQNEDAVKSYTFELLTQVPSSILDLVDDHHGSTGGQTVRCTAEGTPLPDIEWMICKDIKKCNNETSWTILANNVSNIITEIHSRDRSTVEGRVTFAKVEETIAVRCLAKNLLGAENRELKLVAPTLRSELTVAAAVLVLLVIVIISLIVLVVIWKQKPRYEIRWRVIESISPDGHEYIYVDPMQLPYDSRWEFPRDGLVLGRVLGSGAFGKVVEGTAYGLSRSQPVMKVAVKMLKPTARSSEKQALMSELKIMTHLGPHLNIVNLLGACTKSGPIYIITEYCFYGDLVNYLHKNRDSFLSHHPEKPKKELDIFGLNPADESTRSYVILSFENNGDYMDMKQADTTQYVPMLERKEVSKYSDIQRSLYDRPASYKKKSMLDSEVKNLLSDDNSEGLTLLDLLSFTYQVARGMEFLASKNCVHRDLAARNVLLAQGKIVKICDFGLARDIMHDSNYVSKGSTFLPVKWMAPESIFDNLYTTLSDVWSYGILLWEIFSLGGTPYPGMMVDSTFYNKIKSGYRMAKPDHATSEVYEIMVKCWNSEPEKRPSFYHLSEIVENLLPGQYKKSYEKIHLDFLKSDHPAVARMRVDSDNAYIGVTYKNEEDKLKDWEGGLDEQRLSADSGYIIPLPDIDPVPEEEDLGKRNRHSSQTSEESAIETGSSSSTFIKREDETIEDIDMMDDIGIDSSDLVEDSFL
PDGFRβ, sequence (P09619 33-1106): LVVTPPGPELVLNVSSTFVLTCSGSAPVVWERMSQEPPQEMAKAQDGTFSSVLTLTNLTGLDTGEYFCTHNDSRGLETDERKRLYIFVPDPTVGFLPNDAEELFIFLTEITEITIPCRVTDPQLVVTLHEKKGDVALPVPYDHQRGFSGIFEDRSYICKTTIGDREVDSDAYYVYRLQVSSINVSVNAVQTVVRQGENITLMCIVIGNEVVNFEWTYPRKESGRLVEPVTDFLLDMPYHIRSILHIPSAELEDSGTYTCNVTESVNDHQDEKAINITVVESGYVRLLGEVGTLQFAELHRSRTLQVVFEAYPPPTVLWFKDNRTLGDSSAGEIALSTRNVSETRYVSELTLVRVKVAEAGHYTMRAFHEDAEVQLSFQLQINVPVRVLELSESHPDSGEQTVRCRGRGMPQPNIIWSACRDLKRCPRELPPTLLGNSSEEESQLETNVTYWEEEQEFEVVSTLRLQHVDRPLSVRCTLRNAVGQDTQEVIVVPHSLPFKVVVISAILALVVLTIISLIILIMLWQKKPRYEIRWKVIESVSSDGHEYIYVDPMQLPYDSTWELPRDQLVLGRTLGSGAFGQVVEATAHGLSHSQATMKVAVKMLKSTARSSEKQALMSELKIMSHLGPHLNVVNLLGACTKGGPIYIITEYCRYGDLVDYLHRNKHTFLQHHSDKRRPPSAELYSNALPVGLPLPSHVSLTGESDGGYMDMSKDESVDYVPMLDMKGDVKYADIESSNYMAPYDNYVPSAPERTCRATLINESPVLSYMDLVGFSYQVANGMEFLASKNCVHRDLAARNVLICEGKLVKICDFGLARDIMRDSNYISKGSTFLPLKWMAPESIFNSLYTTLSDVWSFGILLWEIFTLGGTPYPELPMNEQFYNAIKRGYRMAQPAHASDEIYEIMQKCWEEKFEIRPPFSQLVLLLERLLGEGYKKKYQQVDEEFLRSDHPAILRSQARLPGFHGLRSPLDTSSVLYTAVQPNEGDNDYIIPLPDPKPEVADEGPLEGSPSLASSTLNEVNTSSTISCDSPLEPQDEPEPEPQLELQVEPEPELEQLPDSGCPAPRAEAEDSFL
CSF1R, sequence (P07333 20-972): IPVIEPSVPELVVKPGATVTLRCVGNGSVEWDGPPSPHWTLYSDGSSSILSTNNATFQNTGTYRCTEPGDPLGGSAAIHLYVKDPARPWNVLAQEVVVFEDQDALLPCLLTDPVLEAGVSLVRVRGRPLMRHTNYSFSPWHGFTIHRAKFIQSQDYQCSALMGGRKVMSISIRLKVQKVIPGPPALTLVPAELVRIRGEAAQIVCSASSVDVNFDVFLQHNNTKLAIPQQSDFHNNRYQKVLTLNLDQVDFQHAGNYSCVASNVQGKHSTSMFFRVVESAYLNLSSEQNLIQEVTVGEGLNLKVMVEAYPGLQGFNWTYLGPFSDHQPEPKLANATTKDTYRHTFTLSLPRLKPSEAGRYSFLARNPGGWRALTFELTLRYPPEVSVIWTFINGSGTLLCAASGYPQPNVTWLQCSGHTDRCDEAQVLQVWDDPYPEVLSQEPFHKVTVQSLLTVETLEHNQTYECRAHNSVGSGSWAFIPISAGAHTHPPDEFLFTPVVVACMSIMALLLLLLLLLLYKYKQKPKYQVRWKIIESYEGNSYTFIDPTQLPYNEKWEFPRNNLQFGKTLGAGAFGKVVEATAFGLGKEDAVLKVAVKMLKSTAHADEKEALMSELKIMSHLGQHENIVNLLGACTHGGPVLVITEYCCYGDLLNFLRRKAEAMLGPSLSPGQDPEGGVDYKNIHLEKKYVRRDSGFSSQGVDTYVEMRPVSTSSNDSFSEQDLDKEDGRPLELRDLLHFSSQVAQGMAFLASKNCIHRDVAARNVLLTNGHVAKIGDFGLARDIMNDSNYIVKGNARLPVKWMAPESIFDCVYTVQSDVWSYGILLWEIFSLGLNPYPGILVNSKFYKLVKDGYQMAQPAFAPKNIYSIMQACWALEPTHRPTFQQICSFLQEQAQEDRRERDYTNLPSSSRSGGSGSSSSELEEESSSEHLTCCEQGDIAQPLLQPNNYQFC
c-Kit, sequence (P10721 26-976): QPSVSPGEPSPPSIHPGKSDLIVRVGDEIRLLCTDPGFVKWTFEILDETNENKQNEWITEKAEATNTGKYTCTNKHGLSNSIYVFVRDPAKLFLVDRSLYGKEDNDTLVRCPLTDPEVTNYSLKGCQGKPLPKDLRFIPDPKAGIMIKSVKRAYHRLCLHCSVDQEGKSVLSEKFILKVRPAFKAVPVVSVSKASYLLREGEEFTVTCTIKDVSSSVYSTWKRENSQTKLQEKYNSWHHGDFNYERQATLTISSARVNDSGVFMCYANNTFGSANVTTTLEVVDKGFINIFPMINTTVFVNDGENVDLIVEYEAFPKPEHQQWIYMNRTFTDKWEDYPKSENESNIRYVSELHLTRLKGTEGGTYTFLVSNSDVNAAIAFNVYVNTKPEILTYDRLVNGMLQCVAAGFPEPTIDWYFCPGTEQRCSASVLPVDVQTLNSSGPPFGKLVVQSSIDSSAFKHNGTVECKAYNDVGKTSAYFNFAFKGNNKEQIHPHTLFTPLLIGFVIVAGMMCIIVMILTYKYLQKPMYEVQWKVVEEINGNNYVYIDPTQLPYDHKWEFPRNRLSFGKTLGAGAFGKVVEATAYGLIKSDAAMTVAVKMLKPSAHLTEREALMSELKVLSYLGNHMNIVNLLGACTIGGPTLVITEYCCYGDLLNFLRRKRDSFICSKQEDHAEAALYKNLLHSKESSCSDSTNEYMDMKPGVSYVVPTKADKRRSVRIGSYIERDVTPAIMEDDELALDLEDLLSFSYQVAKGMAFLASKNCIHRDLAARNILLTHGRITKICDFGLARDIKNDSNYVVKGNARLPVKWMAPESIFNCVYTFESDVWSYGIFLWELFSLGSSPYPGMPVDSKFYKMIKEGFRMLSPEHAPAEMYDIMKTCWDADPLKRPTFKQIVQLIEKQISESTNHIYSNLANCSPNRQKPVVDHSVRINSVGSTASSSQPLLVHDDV

`Cc1ncc(C(=O)Nc2cc(C(=O)Nc3ccc(CC(F)(F)F)cn3)c(F)cc2F)s1` [Example 242, N-[2,4-difluoro-5-[[5-(2,2,2-trifluoroethyl)pyridin-2-yl]carbamoyl]phenyl]-2-methyl-1,3-thiazole-5-carboxamide]: the IC50 against CSF1R was > 1 µM; on PDGFRα, > 1 µM; against c-Kit, 0.1 to 1 µM; against PDGFRβ, > 1 µM. Moreover, in series [1], the “Percent of total metabolism via bioactivation, Rat hepatocytes” value came out at 88%. In addition, in the series on beagle dog hepatocytes, the “Percent of total metabolism via bioactivation, Dog hepatocytes” value is recorded as 44%. In the series on human hepatocytes, the “Percent of total metabolism via bioactivation, Human hepatocytes” value was <1%.

As for `COCCc1ccc(NC(=O)c2cc(NC(=O)c3cnc(N)s3)c(C)cc2F)nc1` [Example 245, 2-Amino-N-[4-fluoro-5-[[5-(2-methoxyethyl)pyridin-2-yl]carbamoyl]-2-methylphenyl]-1,3-thiazole-5-carboxamide], the IC50 was > 1 µM against CSF1R; > 1 µM at FLT3; > 1 µM on PDGFRα; < 0.1 µM against c-Kit; < 0.1 µM in [2] (setting [4]); > 1 µM at PDGFRβ.

Regarding `Cc1cc(F)c(C(=O)Nc2ccc(COCC3CC3)cn2)cc1NC(=O)c1cnc(N)s1` [Example 251, 2-Amino-N-[5-[[5-(cyclopropylmethoxymethyl)pyridin-2-yl]carbamoyl]-4-fluoro-2-methylphenyl]-1,3-thiazole-5-carboxamide], the IC50 at CSF1R is > 1 µM; against FLT3 it was > 1 µM; at PDGFRα, > 1 µM; on c-Kit it was < 0.1 µM; in series [2] (setting [4]) it was < 0.1 µM; against PDGFRβ it was > 1 µM.

`CCc1ccc(NC(=O)c2cc(NC(=O)c3cnc(N)s3)c(C)cc2F)nc1` [Example 255, 2-Amino-N-[5-[(5-ethylpyridin-2-yl)carbamoyl]-4-fluoro-2-methylphenyl]-1,3-thiazole-5-carboxamide]: the IC50 on CSF1R is 0.1 to 1 µM; against FLT3, > 1 µM; against PDGFRα, 0.1 to 1 µM; against c-Kit, < 0.1 µM; in [2] (setting [4]), < 0.1 µM; against PDGFRβ, 0.1 to 1 µM.

Turning to `CO[C@H](C)c1ccc(NC(=O)c2cc(NC(=O)c3cnc(N)s3)c(C)cc2F)nc1` [Example 256, 2-Amino-N-[4-fluoro-5-[[5-[(1R)-1-methoxyethyl]pyridin-2-yl]carbamoyl]-2-methylphenyl]-1,3-thiazole-5-carboxamide], the 50% inhibitory concentration (IC50) was > 1 µM at CSF1R; > 1 µM at FLT3; > 1 µM against PDGFRα; < 0.1 µM on c-Kit; < 0.1 µM in series [2] (setting [4]); 0.1 to 1 µM against PDGFRβ.

Turning to `CO[C@@H](C)c1ccc(NC(=O)c2cc(NC(=O)c3cnc(N)s3)c(C)cc2F)nc1` [Example 257, 2-Amino-N-[4-fluoro-5-[[5-[(1S)-1-methoxyethyl]pyridin-2-yl]carbamoyl]-2-methylphenyl]-1,3-thiazole-5-carboxamide], the IC50 is > 1 µM against CSF1R; > 1 µM on FLT3; > 1 µM at PDGFRα; < 0.1 µM against c-Kit; < 0.1 µM in [2] (setting [4]); 0.1 to 1 µM against PDGFRβ.

Consider `Cc1cc(F)c(C(=O)Nc2ccc(OC3CC3)nn2)cc1NC(=O)c1cnc(N)s1` [Example 258, 2-Amino-N-[5-[(6-cyclopropyloxypyridazin-3-yl)carbamoyl]-4-fluoro-2-methylphenyl]-1,3-thiazole-5-carboxamide], for which the IC50 on CSF1R was 0.1 to 1 µM; at FLT3, > 1 µM; on PDGFRα, 0.1 to 1 µM; on c-Kit it was < 0.1 µM; in [2] (setting [4]), < 0.1 µM; against PDGFRβ it was 0.1 to 1 µM.

As for `Cc1cc(F)c(C(=O)Nc2ccc(OC(C)C)nn2)cc1NC(=O)c1cnc(N)s1` [Example 259, 2-Amino-N-[4-fluoro-2-methyl-5-[(6-propan-2-yloxypyridazin-3-yl)carbamoyl]phenyl]-1,3-thiazole-5-carboxamide], the IC50 at CSF1R is 0.1 to 1 µM; against FLT3, > 1 µM; on PDGFRα, 0.1 to 1 µM; on c-Kit, < 0.1 µM; in series [2] (setting [5]) it was < 0.1 µM; on PDGFRβ, < 0.1 µM.

Regarding `COC1(c2ccc(NC(=O)c3cc(NC(=O)c4cnc(N)s4)c(C)cc3F)nc2)CC1` [Example 260, 2-Amino-N-[4-fluoro-5-[[5-(1-methoxycyclopropyl)pyridin-2-yl]carbamoyl]-2-methylphenyl]-1,3-thiazole-5-carboxamide], the half-inhibitory concentration (IC50) at CSF1R is 0.1 to 1 µM; on FLT3 it was > 1 µM; at PDGFRα it was > 1 µM; against c-Kit, < 0.1 µM; in series [2] (setting [5]), < 0.1 µM; at PDGFRβ, 0.1 to 1 µM.

Turning to `Cc1ccc(-c2noc([C@H]3C[C@@H]3F)n2)cc1NC(=O)c1cnc2ccccn12` [labuxtinib, reference compound], in series [3], the “Percent of total metabolism via bioactivation, Monkey hepatocytes” value is reported as 31%. Also, the “Percent of total metabolism via bioactivation, Rat hepatocytes” value in series [1] is listed as 45%. For the same compound, in the series with beagle dog hepatocytes, the “Percent of total metabolism via bioactivation, Dog hepatocytes” value was found to be 17%. In addition, in the series on human hepatocytes, the “Percent of total metabolism via bioactivation, Human hepatocytes” value was found to be 24%.

The term IC50 denotes the concentration needed to halve the response being measured.
